Consider three compounds from paper PMC5700983 (Nature Communications, 2017).

Experiment [1] has as its target T1, Te_PtxB (Trichodesmium erythraeum, UniProt Q119I9). The experiment is described as follows: biochemical. Type of experiment: binding, Trichodesmium erythraeum IMS101.
For experiment [2], the target named is Ps_PtxB (Stutzerimonas stutzeri, UniProt O69052). The experiment is described as follows: biochemical. Type of experiment: binding, Pseudomonas stutzeri WM88.
For experiment [3], the target named is Pm_PhnD (Prochlorococcus marinus, UniProt A3PC74). The experiment is described as follows: biochemical. Type of experiment: binding, Prochlorococcus marinus MIT9301.
Experiment [4] relates to Te_PtxB, Pm_PhnD and Ps_PtxB. It counts as binding.
For experiment [5], the target named is Ec_PhnD. The note with it: cited from earlier work.
The target of experiment [6] is T2, HtxB (Stutzerimonas stutzeri, UniProt O69061). The note with it: pH 7.4.
In experiment [7] the target is T3, Te_PtxB Y208F (Trichodesmium erythraeum, UniProt Q119I9, Y234F).
The subject of experiment [8] is E. coli strain devoid of its native phosphate acquisition systems. The settings on record: cited from earlier work.
The test system is the same in experiment [9]. The note with it: cited from earlier work. This is another data set of the same source.
The target of experiment [10] is Te_PtxB Y208A (Trichodesmium erythraeum, UniProt Q119I9, Y234A). The experiment is described as follows: biochemical.
Experiment [11] addresses T3, Te_PtxB Y208F. The experiment is described as follows: biochemical.
The target in experiment [12] is Pm_PtxB. The note with it: cited from earlier work.
Experiment [13] concerns the target T2, HtxB. The experiment is described as follows: biochemical.
The target in experiment [14] is T1, Te_PtxB. The experiment is described as follows: biochemical.

Read-outs that look alike come from different tables or passages of the source.

Ps_PtxB, sequence (O69052 24-287): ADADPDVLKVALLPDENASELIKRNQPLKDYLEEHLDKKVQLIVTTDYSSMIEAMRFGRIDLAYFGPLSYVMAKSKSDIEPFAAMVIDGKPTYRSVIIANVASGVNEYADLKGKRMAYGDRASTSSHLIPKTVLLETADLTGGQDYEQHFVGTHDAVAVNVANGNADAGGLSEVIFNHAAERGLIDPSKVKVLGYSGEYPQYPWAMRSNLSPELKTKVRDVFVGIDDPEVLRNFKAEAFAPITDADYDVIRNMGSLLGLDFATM
T1 sequence (Q119I9 28-298 limits assumed): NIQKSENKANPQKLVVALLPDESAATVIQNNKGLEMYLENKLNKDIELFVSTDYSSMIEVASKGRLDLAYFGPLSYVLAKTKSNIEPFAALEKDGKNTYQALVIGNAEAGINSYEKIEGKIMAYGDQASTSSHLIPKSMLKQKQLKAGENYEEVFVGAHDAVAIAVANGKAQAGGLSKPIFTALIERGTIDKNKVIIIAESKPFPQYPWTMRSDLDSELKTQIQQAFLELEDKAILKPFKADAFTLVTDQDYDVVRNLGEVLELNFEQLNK
T3 sequence (Q119I9 28-298 Y234F limits assumed): as the sequence (Q119I9 28-298 limits assumed) above, with Y207F counted along it
Te_PtxB Y208A, sequence (Q119I9 28-298 Y234A limits assumed): as the sequence (Q119I9 28-298 limits assumed) above, with Y207A counted along it
Pm_PhnD, sequence (A3PC74 25-297): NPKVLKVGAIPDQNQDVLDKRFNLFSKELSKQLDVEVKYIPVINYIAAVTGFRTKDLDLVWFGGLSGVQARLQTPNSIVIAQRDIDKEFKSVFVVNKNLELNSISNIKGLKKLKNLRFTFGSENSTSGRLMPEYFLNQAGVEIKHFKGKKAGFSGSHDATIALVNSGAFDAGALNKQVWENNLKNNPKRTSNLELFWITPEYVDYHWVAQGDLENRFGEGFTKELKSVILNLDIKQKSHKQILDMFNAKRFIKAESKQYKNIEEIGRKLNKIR
T2 sequence (O69061 34-298): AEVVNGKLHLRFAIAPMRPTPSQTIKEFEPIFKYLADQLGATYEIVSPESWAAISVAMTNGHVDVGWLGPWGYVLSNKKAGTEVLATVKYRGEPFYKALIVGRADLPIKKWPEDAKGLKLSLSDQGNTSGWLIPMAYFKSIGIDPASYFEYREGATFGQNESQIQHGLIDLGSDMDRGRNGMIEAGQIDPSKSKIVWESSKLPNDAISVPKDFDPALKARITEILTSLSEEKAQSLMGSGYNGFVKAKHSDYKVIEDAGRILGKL

For `NCCP(=O)(O)O` [2-Aminoethylphosphonate, 2-aminoethylphosphonate], in experiment [1] (pH 7.4), the “K d, Te_PtxB” value was “NBD”. Further, in [2] (pH 7.4), the “K d, Ps_PtxB” value was “NBD”. Moreover, the “K d, Pm_PhnD” value in experiment [3] (pH 7.4) is reported as “NBD”. Moreover, the “binding, result in words” value in experiment [4] is “None of the proteins showed any evidence of binding”. Besides, in experiment [5], the “binding affinity for Ec_PhnD, in words” value is given as “low nanomolar”.

In the case of `O=P(O)(O)O` [Phosphate], the Kd is 159 ± 36 µM in [2], 51.3 ± 1.76 µM in experiment [10] and > 60000 µM in [11]. In addition, the “K d, HtxB” value in experiment [6] is listed as “NBD”. Also, in experiment [7], the “binding to Te_PtxB Y208F, result in words” value is “essentially abolished”. For the same compound, in [8], the “growth of E. coli strain with PtxD and Ralstonia sp. 4506 PtxABC” value is “grew”. The “growth of E. coli strain with HtxBCDE” value in [9] is given as “did not allow growth”.

`O=[PH](O)O` [Phosphite, phosphite]: the “higher binding affinity for phosphite than phosphate and phosphonates, Te_PtxB” value in experiment [1] is given as 2–4 orders of magnitude. The Kd was 0.17 ± 0.07 µM in [1] (K d, Te_PtxB); ~0.17 µM in experiment [1] (Kd, PtxB (approximate, authors' response)); 0.17 µM in [1] (Kd, Te_PtxB WT (as quoted in peer review file)); 0.24 ± 0.03 µM in experiment [2]; 0.051 ± 0.004 µM in experiment [3]; 0.05 to 0.24 µM in experiment [4] (read-out: K d range over Te_PtxB, Pm_PhnD and Ps_PtxB). Besides, the Kd is > 10000 µM in [13]; 134 ± 6.4 µM in [10] (K d, Te_PtxB Y208A); 135 µM in experiment [10] (Kd, Te_PtxB Y208A (as quoted in peer review file)); 295 ± 4.64 µM in experiment [11] (K d, Te_PtxB Y208F); 295 µM in experiment [11] (Kd, Te_PtxB Y208F (as quoted in peer review file)); 0.289 ± 0.064 µM in [14]. Also, the “higher binding affinity for phosphite than phosphate and phosphonates, Pm_PhnD” value in [3] is 2–4 orders of magnitude. Also, the “binding affinity for Pm_PtxB, in words” value in experiment [12] is “low micromolar”. Also, the “growth of E. coli strain with PtxD and Ralstonia sp. 4506 PtxABC” value in [8] is listed as “grew”. In experiment [9], the “growth of E. coli strain with HtxBCDE” value is given as “did allow growth”.
